Data as given in US20220025003A1, “REAGENTS AND METHODS FOR CONTROLLING PROTEIN FUNCTION AND INTERACTION” (University of Washington, priority 2018, published 2022).

Assays:
[1] = system: GFP reporter gene in HEK293T cells; assay: dciCas9-mediated transcription; format: cell-based; conditions: 10 μM A115 and 10 μM grazoprevir
Method: For FACS analysis, 10,000 single cell events were collected for each of the samples run. […] The gathered FACS data were analyzed using FlowJo (v.10.1).

[2] = system: NS3a in NIH3T3 cells; assay: Confocal microscopy for colocalization analysis (fixed cells); format: cell-based; conditions: for DNCR2-EGFP colocalization with mitochondrial Tom20-mCherry-NS3a: 10 μM drug, 1 h
[3] = system: mCherry reporter gene in HEK293T cells; assay: Chemically-disruptable Gal4(DBD)-NS3a(H1)/ANR-VPR transcriptional regulation; format: cell-based; conditions: 1 μM drug, 24 hours
Method: Cells were subsequently transfected with 1 μg of the Gal4 reporter plasmid (UAS-mCherry™/CMV-Gal4-NS3a(H1)-P2A-ANR-Myc-BFP-VPR-NLS) in OptiMem™. […] Supernatant was subsequently removed and the cells were re-suspended in 400 μL DPBS and analyzed on a FACS LSRII (BD Biosciences).
For Gal4/NS3a-CDP mediated transcriptional activation FACS experiments, 10,000 single cell events were collected for each of the samples run. […] The gathered FACS data were analyzed using FlowJo™ (v.10.1).

[4] = system: CXCR4; assay: cells; conditions: Homo sapiens, read-out: EC50 (CXCR4 expression)
[5] = system: GFP, CD95 and CXCR4; assay: 3-gene experiment (GFP, CD95, CXCR4) by RT-qPCR; format: cell-based; conditions: 10 μM danoprevir, 1 μM grazoprevir, 1 μM asunaprevir
Text: Cells were harvested on day 5 as described above for other samples to be analyzed to qPCR.

[6] = system: RAS/ERK pathway in HEK293 cells; assay: Activation of NS3a-CDAR, phospho-ERK blot; format: cell-based; conditions: 10 μM drug, 60 min
Method: 18-24 hours prior to transfection, 3.0×10^5 HEK293 cells were plated onto poly-D-lysine 12 well plates. Immediately prior to transfection, media was aspirated and cells were washed with 1 mL of pre-warmed (37° C.) PBS, then serum starved with FBS-free DMEM. Following serum starvation, cells were transfected with 1 μg of FLAG-tagged NS3a-CDAR, BH3-NS3a-CDAR, or an empty pCDNA5 vector. Transfected cells were allowed to serum stave for 18-20 hours prior to drug treatment. For drug treatment, serum-free media was prepared with DMSO or 10 μM of a drug. Media was aspirated, washed once with pre-warmed DPBS, then treated with drug/DMSO media for the requisite amount of time. Media was subsequently aspirated and the cells were washed twice with 1 mL chilled PBS, then lysed with 75 μL Mod. RIPA buffer (50 mM Tris, pH 7.8, 1% IGEPAL CA-630, 150 mM NaCl, 1 mM EDTA, 2 mM Na3VO4, 30 mM NaF, Pierce Protease Inhibitor Tablet). Cleared lysates were subjected to SDS-PAGE and transferred to nitrocellulose. Blocking and antibody incubations were done in TBS with 0.1% Tween-20 (v/v) and blocking buffer (Odyssey). Primary antibodies were all purchased from Cell Signaling Technologies and were diluted as follows: Total ERK (1:2500, #9107), phosphorylated ERK (1:2500, #4370), FLAG (1:2,500, #D6W5B). Blots were washed three times in TBS with 0.1% Tween-20. Antibody binding was detected by using near-infrared-dye-conjugated secondary antibodies and visualized on the LI-COR Odyssey scanner. Blots were quantified via densitometry with Image Studio (LI-COR).

[7] = system: NS3a in NIH3T3 cells; assay: Confocal microscopy for colocalization analysis (fixed cells); format: cell-based; conditions: 10 μM drug, 1 h
Method: A Leica SP8× system was used for confocal microscopy. […] TagBFP emission was recorded on a PMT detector, and EGFP and mCherry™ were detected by separate HyD™ detectors.
Colocalization experiments were performed in NIH3T3 cells (Flp-In-3T3, Thermo Fisher Scientific). For fixed-cell experiments, cells were plated at 3×10^4 cells/mL on sterile glass coverslides placed in 12-well culture plates. […] One day after transfection, cells were treated with drug or DMSO and fixed. Drug additions were performed by exchanging the media for DMEM+10% v/v FBS plus drug. To fix, cells were washed once with DPBS (Thermo Fisher Scientific), then incubated with 4% v/v paraformaldehyde in DPBS for 15 minutes. After washing twice with DPBS, coverslides with cells were removed from the plate and mounted on glass slides using Fluoromount-G (SouthernBiotech).
Colocalization of NS3a and DNCR1 at the plasma membrane, nucleus, mitochondria and Golgi was performed with two sets of constructs, with either NS3a or DNCR1 as the immobilized component. mCherry™-NS3a was used with Tom20-DNCR1-EGFP, DNCR1-EGFP-Giantin, and 3×NLS-DNCR1-EGFP. […] Colocalization was analyzed after 1 h of 10 μM drug or equal volume DMSO treatment.
All images were analyzed using ImageJ. […] EGFP fluorescence was quantified in the ROI over the timecourse. […] The cytoplasmic fluorescence was normalized to the value in the first and last frame for each cell. […]

[8] = system: HeLa cells; assay: Widefield microscopy for signaling phenotype analysis; format: cell-based; conditions: EGFP-DNCR2-TIAM, BFP-GNCR1-LARG and NS3a-CAAX in HeLa cells
Method: Widefield images were collected in an environmental chamber with humidity control, 37° C., and 5% CO2 on a Leica DMi8 automated fluorescence microscope. Cells were plated on glass-bottomed 96-well plates (Cellvis). Plates were treated with 10 μg/mL bovine fibronectin (Sigma Aldrich) for 1 hour and washed once with PBS.
The cell line used was TRex™-HeLa (ThermoFisher Scientific), into which Lifeact-mCherry™ was stably integrated into the doxycycline-regulated Flp-In site by co-transfection of the pCDNA5-FRT/TO-Lifeact-mCherry™ vector with the Flp recombinase plasmid pOG44 (ThermoFisher Scientific) according to manufacturer's protocols. Lifeact-mCherry™ was induced by addition of 1 μg/mL doxycycline to culture media. For expression of signaling effector proteins, 1 day prior to imaging, 5×10^6 cells were transiently transfected with 10 μg DNA in a 100 μL electroporation tip using a Neon transfection system (ThermoFisher Scientific) according to manufacturer's recommendations for HeLa cells. 5×10^3 cells were plated in each well of the 96-well plate used for imaging. Cells recovered in complete DMEM with 10% FBS overnight. […] For Rac/Rho regulation, the construct PB-NS3a-CAAX-IRES-EGFP-DNCR2-TIAM-P2a-BFP-GNCR1-LARG was used, with images collected for the mCherry™ (Lifeact) and EGFP (DNCR2-TIAM) channels. […]

[9] = biological target: T1, NS3a protease (Hepatitis C virus genotype 1b, UniProt Q9WMX2, A1176V/C1042I/E1056D/L1047A/L1120M/Q1112P/R1052K/V1062L/V1196I); assay: NS3a protease inhibition FRET assay; format: biochemical; conditions: ANR-GST fusion, FRET-based protease assay
T1 construct: SNAPtag-NS3a-His6; made in house; host or cells: E. coli BL21(DE3)
Method: The potency of ANR against NS3a protease was determined via a FRET assay. Titrations of ANR-GST (3-fold serial dilutions starting at 10 μM) were added to a black 96-well plate (Corning, product number 3720) containing 50 nM SNAPtag-NS3a. Reactions were incubated with NS3a-SNAPtag at room temperature for 1 hour. To each well was simultaneously added substrate M-2235 (Bachem) to a final concentration of 5 μM and reactions were monitored by measuring the fluorescence intensity every minute for 30 minutes at 22° C. on a Perkin Elmer EnVision™ fluorometer (excitation, 360 nm; emission 460 nm). Each measurement was carried out in triplicate. Slopes of the fluorescence increase were compared to a no-protease control. A nonlinear regression model was used to fit curves using GraphPad™ Prism.

[10] = biological target: T2, NS3a* (Hepatitis C virus genotype 1a, UniProt P27958, C1073S/C1078L/C1185S/I1043Q/I1044E/I1098T/L1039E/L1040E/L1047Q/L1179I/N1200S/P1112Q/Q1106K/T1100M/T1173A); assay: Fluorescence polarization binding assay (FB50) with FAM-ANR
T2 construct: His6-NS3a; made in house; host or cells: E. coli BL21 (DE3)
Method: (§1) The affinities of the NS3a variants for ANR were determined using a fluorescence polarization assay. Fluorescently labeled ANR (FAM-ANR, FIG. 5B) was obtained as a crude mixture from GenScript™ and purified by HPLC. Titrations of recombinant NS3a variants (3-fold serial dilutions, starting at 5 μM) were diluted in FP-Buffer (50 mM HEPES, pH 7.8, 100 mM NaCl, 5 mM DTT, 1% Glycerol, 0.01% Tween, 5% v/v DMSO). These dilutions were added to a wells containing FAM-ANR (final concentration=10 nM). FAM-ANR/NS3a solutions were incubated at room temperature in the dark for 1 hour. Fluorescence polarization was measured on a Perkin Elmer EnVision™ fluorometer (excitation, 495 nm; emission 520 nm). All measurements were carried out in black 96-well plates (Corning, product #: 3720) and run in triplicate. Anisotropy values were obtained and a nonlinear regression model was used to determine binding constants in GraphPad™ Prism.

[11] = biological target: T3, NS3a (Hepatitis C virus genotype 1b, UniProt Q9WMX2, A1176V/E1056D/L1047A/L1120M/Q1112P/R1052K/V1062L/V1196I); assay: as above
T3 construct: Avi-His6-NS3a; the text calls the FP protein non-biotinylated) (N); made in house; host or cells: E. coli BL21 (DE3)
Method: as §1

Row | Compound | GFP expression on co-administration with A115 [1] | Colocalization of DNCR2-EGFP and GNCR1-BFP with NS3a-mCherry-CAAX ([2]; 5 μM drug) | Colocalization of NS3a-mCherry with GNCR1-BFP-CAAX or Tom20-DNCR2-EGFP ([2]; 5 μM drug, 15 min) | DNCR2-EGFP colocalization with mitochondrial Tom20-mCherry-NS3a [2] | mCherry expression after drug treatment [3] | EC50 [4] [nM] | transcriptional output state in 3-gene system [5] | phospho-ERK levels in cells expressing NS3a-CDAR [6] | Colocalization of DNCR1-EGFP and NS3a-mCherry [7] | cell shape change [8] | apparent IC50 against NS3a activity [9] | affinity for NS3a* [10] | binding to NS3a [11]
1 | C=C[C@@H]1C[C@]1(NC(=O)[C@@H]1C[C@@H]2CN1C(=O)[C@H](C(C)(C)C)NC(=O)O[C@@H]1C[C@H]1CCCCCc1nc3ccc(OC)cc3nc1O2)C(=O)NS(=O)(=O)C1CC1 [grazoprevir] | reversed | GNCR1/NS3a colocalization | exclusively colocalized NS3a-mCherry™ to plasma membrane-targeted GNCR1-BFP-CAAX | neither grazoprevir nor asunaprevir induced DNCR2-EGFP colocalization | decreased mCherry™ expression to background levels | 0.16 ± 0.03 | CXCR4 expression under control of GNCR1 | robust increase in phospho-ERK levels | much lower correlation | caused cell contraction | – | – | –
2 | C=C[C@@H]1C[C@]1(NC(=O)[C@@H]1C[C@@H](Oc2ncc(OC)c3ccc(Cl)cc23)CN1C(=O)[C@@H](NC(=O)OC(C)(C)C)C(C)(C)C)C(=O)NS(=O)(=O)C1CC1 [asunaprevir] | – | – | – | neither grazoprevir nor asunaprevir induced DNCR2-EGFP colocalization | – | – | no gene expression | robust increase in phospho-ERK levels | much lower correlation | – | – | – | –
3 | genetically-encoded peptide inhibitor of NS3a, GELDELVYLLDGPGYDPIHSD (SEQ ID NO:14); tested as ANR-GST and FAM-ANR | – | – | – | – | – | – | – | – | – | – | less than the concentration of NS3a protease used in the assay | very low affinity | binds tightly
